Measured values reported in ChEMBL document CHEMBL1159167, “Synthesis and biological activity of 5-[(2,5-dihydroxybenzyl)amino]salicylic acid analogs as inhibitors of EGF receptor-associated protein tyrosine kinase” (Bioorg Med Chem Lett, 1997).
pIC50: −log10 of the molar value.

target: Epidermal growth factor receptor (Homo sapiens, UniProt P00533); test: Displacement of [gamma-32P]-ATP from Epidermal growth factor receptor in A431 cell-free extracts; design: species or system A-431
Sequence (P00533 whole entry): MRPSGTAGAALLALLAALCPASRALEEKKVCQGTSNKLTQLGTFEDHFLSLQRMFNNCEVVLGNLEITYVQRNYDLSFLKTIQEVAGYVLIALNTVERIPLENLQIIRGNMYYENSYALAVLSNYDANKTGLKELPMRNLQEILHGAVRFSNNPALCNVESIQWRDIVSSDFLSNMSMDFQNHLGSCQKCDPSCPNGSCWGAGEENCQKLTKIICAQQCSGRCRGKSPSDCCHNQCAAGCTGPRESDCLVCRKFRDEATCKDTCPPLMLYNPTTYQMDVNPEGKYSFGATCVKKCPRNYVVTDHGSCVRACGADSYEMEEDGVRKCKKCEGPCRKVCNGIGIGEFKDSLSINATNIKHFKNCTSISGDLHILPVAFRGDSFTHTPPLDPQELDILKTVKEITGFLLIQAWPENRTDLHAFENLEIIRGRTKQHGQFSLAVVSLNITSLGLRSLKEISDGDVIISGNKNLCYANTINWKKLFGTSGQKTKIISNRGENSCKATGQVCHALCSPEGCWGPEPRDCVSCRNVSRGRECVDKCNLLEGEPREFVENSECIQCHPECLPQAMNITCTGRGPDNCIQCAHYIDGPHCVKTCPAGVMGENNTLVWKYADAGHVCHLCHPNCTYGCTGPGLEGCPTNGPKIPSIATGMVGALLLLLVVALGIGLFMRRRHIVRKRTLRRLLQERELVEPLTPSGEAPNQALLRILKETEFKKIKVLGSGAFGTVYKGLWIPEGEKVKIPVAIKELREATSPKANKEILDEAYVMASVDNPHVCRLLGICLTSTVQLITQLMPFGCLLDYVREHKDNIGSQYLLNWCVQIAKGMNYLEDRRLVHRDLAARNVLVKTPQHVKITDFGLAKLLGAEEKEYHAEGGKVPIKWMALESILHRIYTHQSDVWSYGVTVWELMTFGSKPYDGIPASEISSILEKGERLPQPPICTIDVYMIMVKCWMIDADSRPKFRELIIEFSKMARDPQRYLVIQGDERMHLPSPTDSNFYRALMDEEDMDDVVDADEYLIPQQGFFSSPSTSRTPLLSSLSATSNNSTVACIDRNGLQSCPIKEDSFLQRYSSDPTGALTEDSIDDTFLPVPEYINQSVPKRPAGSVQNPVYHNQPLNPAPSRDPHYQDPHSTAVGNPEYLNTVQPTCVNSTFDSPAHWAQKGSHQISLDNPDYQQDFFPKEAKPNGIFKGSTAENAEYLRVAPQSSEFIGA

pIC50	SMILES
4.38	Oc1ccc(NCc2cc(O)ccc2O)cc1
5.27	O=[N+]([O-])c1cc(NCc2cc(O)ccc2O)ccc1O
6.05	CCCCCCNC(=O)c1cc(NCc2cc(O)ccc2O)ccc1O
4.57	CCCCCCCCCCCCCCNC(=O)c1cc(NCc2cc(O)ccc2O)ccc1O
5.01	CNC(=O)c1cc(NCc2cc(O)ccc2O)ccc1O
4.99	O=S(=O)(O)c1cc(NCc2cc(O)ccc2O)ccc1O
